Results reported in ChEMBL document CHEMBL1649268, “Comparative in vitro activity profile of oritavancin against recent gram-positive clinical isolates” (2009).
≈ marks a conversion by molar mass, not a printed value.

Assays:
[1] = tested on: Staphylococcus haemolyticus; assay: Antimicrobial activity against oxacillin-resistant Staphylococcus haemolyticus clinical isolates assessed as resistant isolates by broth microdilution method; format: functional
Staphylococcus aureus [2] = assay: Antimicrobial activity against Staphylococcus aureus clinical isolates assessed as resistant isolates by broth microdilution method; format: functional
[3] = Antimicrobial activity against erythromycin-susceptible Streptococcus Group C clinical isolates assessed as percent susceptible isolates by broth microdilution method; format: functional, Streptococcus sp. 'group C'
Staphylococcus aureus [4] = assay: Antimicrobial activity against oxacillin-susceptible Staphylococcus aureus clinical isolates assessed as percent susceptible isolates by broth microdilution method; format: functional
[5] = Antimicrobial activity against erythromycin-susceptible Streptococcus Group C clinical isolates by broth microdilution method; format: functional; conditions: Streptococcus sp. 'group C'
[6] = tested on: Staphylococcus epidermidis; assay: Antimicrobial activity against oxacillin-resistant Staphylococcus epidermidis clinical isolates assessed as percent susceptible isolates by broth microdilution method; format: functional
Streptococcus pneumoniae [7] = assay: Antimicrobial activity against penicillin-susceptible Streptococcus pneumoniae clinical isolates by broth microdilution method; format: functional
[8] = tested on: Staphylococcus epidermidis; assay: Antimicrobial activity against oxacillin-susceptible Staphylococcus epidermidis clinical isolates by broth microdilution method; format: functional
[9] = tested on: Staphylococcus epidermidis; assay: Antimicrobial activity against Staphylococcus epidermidis clinical isolates assessed as percent susceptible isolates by broth microdilution method; format: functional
Staphylococcus aureus [10] = assay: Antimicrobial activity against oxacillin-resistant Staphylococcus aureus clinical isolates assessed as percent susceptible isolates by broth microdilution method; format: functional
Streptococcus pneumoniae [11] = assay: Antimicrobial activity against Streptococcus pneumoniae clinical isolates assessed as percent susceptible isolates by broth microdilution method; format: functional
[12] = Antimicrobial activity against erythromycin-nonsusceptible Streptococcus Group C clinical isolates assessed as percent susceptible isolates by broth microdilution method; format: functional, Streptococcus sp. 'group C'
Streptococcus pneumoniae [13] = assay: Antimicrobial activity against penicillin-resistant Streptococcus pneumoniae clinical isolates assessed as percent susceptible isolates by broth microdilution method; format: functional
Streptococcus pneumoniae [14] = assay: Antimicrobial activity against penicillin-intermediate Streptococcus pneumoniae clinical isolates assessed as resistant isolates by broth microdilution method; format: functional
[15] = Antimicrobial activity against erythromycin-susceptible Streptococcus Group G clinical isolates assessed as percent susceptible isolates by broth microdilution method; format: functional, Streptococcus sp. 'group G'
[16] = tested on: Staphylococcus haemolyticus; assay: Antimicrobial activity against oxacillin-susceptible Staphylococcus haemolyticus clinical isolates by broth microdilution method; format: functional
[17] = tested on: Staphylococcus haemolyticus; assay: Antimicrobial activity against Staphylococcus haemolyticus clinical isolates assessed as percent susceptible isolates by broth microdilution method; format: functional
Streptococcus pneumoniae [18] = assay: Antimicrobial activity against penicillin-intermediate Streptococcus pneumoniae clinical isolates assessed as percent susceptible isolates by broth microdilution method; format: functional
Staphylococcus aureus [19] = assay: Antimicrobial activity against Staphylococcus aureus clinical isolates by broth microdilution method; format: functional
Streptococcus [20] = assay: Antimicrobial activity against Streptococcus Group F clinical isolates by broth microdilution method; format: functional
Streptococcus pneumoniae [21] = assay: Antimicrobial activity against Streptococcus pneumoniae clinical isolates assessed as resistant isolates by broth microdilution method; format: functional
[22] = tested on: Staphylococcus haemolyticus; assay: Antimicrobial activity against oxacillin-resistant Staphylococcus haemolyticus clinical isolates assessed as percent susceptible isolates by broth microdilution method; format: functional
Staphylococcus aureus [23] = assay: Antimicrobial activity against oxacillin-susceptible Staphylococcus aureus clinical isolates by broth microdilution method; format: functional
[24] = Antimicrobial activity against Streptococcus Group C clinical isolates by broth microdilution method; format: functional; conditions: Streptococcus sp. 'group C'
Staphylococcus aureus [25] = assay: Antimicrobial activity against oxacillin-resistant Staphylococcus aureus clinical isolates assessed as resistant isolates by broth microdilution method; format: functional
[26] = tested on: Staphylococcus epidermidis; assay: Antimicrobial activity against oxacillin-resistant Staphylococcus epidermidis clinical isolates by broth microdilution method; format: functional
[27] = tested on: Staphylococcus epidermidis; assay: Antimicrobial activity against Staphylococcus epidermidis clinical isolates by broth microdilution method; format: functional
[28] = tested on: Staphylococcus epidermidis; assay: Antimicrobial activity against Staphylococcus epidermidis clinical isolates assessed as resistant isolates by broth microdilution method; format: functional
Streptococcus agalactiae [29] = assay: Antimicrobial activity against Streptococcus agalactiae clinical isolates by broth microdilution method; format: functional
Streptococcus pyogenes [30] = assay: Antimicrobial activity against erythromycin-nonsusceptible Streptococcus pyogenes clinical isolates assessed as percent susceptible isolates by broth microdilution method; format: functional
[31] = tested on: Staphylococcus haemolyticus; assay: Antimicrobial activity against oxacillin-susceptible Staphylococcus haemolyticus clinical isolates assessed as percent susceptible isolates by broth microdilution method; format: functional
Streptococcus pyogenes [32] = assay: Antimicrobial activity against erythromycin-nonsusceptible Streptococcus pyogenes clinical isolates assessed as resistant isolates by broth microdilution method; format: functional
[33] = tested on: Staphylococcus epidermidis; assay: Antimicrobial activity against oxacillin-susceptible Staphylococcus epidermidis clinical isolates assessed as percent susceptible isolates by broth microdilution method; format: functional
[34] = Antimicrobial activity against erythromycin-nonsusceptible Streptococcus Group G clinical isolates by broth microdilution method; format: functional; conditions: Streptococcus sp. 'group G'
[35] = tested on: Staphylococcus haemolyticus; assay: Antimicrobial activity against Staphylococcus haemolyticus clinical isolates by broth microdilution method; format: functional
[36] = tested on: Staphylococcus epidermidis; assay: Antimicrobial activity against oxacillin-susceptible Staphylococcus epidermidis clinical isolates assessed as resistant isolates by broth microdilution method; format: functional
Streptococcus pneumoniae [37] = assay: Antimicrobial activity against penicillin-resistant Streptococcus pneumoniae clinical isolates by broth microdilution method; format: functional
Streptococcus pneumoniae [38] = assay: Antimicrobial activity against penicillin-resistant Streptococcus pneumoniae clinical isolates assessed as resistant isolates by broth microdilution method; format: functional
Streptococcus pneumoniae [39] = assay: Antimicrobial activity against penicillin-susceptible Streptococcus pneumoniae clinical isolates assessed as percent susceptible isolates by broth microdilution method; format: functional
Streptococcus pneumoniae [40] = assay: Antimicrobial activity against Streptococcus pneumoniae clinical isolates by broth microdilution method; format: functional
Streptococcus pyogenes [41] = assay: Antimicrobial activity against Streptococcus pyogenes clinical isolates assessed as percent susceptible isolates by broth microdilution method; format: functional
Streptococcus pneumoniae [42] = assay: Antimicrobial activity against penicillin-intermediate Streptococcus pneumoniae clinical isolates by broth microdilution method; format: functional
[43] = tested on: Staphylococcus epidermidis; assay: Antimicrobial activity against oxacillin-resistant Staphylococcus epidermidis clinical isolates assessed as resistant isolates by broth microdilution method; format: functional
Streptococcus [44] = assay: Antimicrobial activity against erythromycin-nonsusceptible Streptococcus Group F clinical isolates by broth microdilution method; format: functional
Streptococcus pyogenes [45] = assay: Antimicrobial activity against erythromycin-nonsusceptible Streptococcus pyogenes clinical isolates by broth microdilution method; format: functional
Streptococcus agalactiae [46] = assay: Antimicrobial activity against erythromycin-susceptible Streptococcus agalactiae clinical isolates assessed as percent susceptible isolates by broth microdilution method; format: functional
Streptococcus [47] = assay: Antimicrobial activity against erythromycin-susceptible Streptococcus Group F clinical isolates by broth microdilution method; format: functional
Streptococcus agalactiae [48] = assay: Antimicrobial activity against erythromycin-nonsusceptible Streptococcus agalactiae clinical isolates by broth microdilution method; format: functional
[49] = Antimicrobial activity against erythromycin-nonsusceptible Streptococcus Group G clinical isolates assessed as percent susceptible isolates by broth microdilution method; format: functional, Streptococcus sp. 'group G'
[50] = Antimicrobial activity against Streptococcus Group G clinical isolates by broth microdilution method; format: functional; conditions: Streptococcus sp. 'group G'
Streptococcus agalactiae [51] = assay: Antimicrobial activity against erythromycin-susceptible Streptococcus agalactiae clinical isolates by broth microdilution method; format: functional
Staphylococcus aureus [52] = assay: Antimicrobial activity against oxacillin-susceptible Staphylococcus aureus clinical isolates assessed as resistant isolates by broth microdilution method; format: functional
[53] = Antimicrobial activity against erythromycin-susceptible Streptococcus Group G clinical isolates by broth microdilution method; format: functional; conditions: Streptococcus sp. 'group G'
[54] = Antimicrobial activity against erythromycin-nonsusceptible Streptococcus Group C clinical isolates by broth microdilution method; format: functional; conditions: Streptococcus sp. 'group C'
[55] = tested on: Staphylococcus haemolyticus; assay: Antimicrobial activity against oxacillin-susceptible Staphylococcus haemolyticus clinical isolates assessed as resistant isolates by broth microdilution method; format: functional
Streptococcus pyogenes [56] = assay: Antimicrobial activity against Streptococcus pyogenes clinical isolates assessed as resistant isolates by broth microdilution method; format: functional
Streptococcus agalactiae [57] = assay: Antimicrobial activity against Streptococcus agalactiae clinical isolates assessed as percent susceptible isolates by broth microdilution method; format: functional
Streptococcus agalactiae [58] = assay: Antimicrobial activity against erythromycin-nonsusceptible Streptococcus agalactiae clinical isolates assessed as resistant isolates by broth microdilution method; format: functional
Streptococcus agalactiae [59] = assay: Antimicrobial activity against Streptococcus agalactiae clinical isolates assessed as resistant isolates by broth microdilution method; format: functional
[60] = tested on: Staphylococcus haemolyticus; assay: Antimicrobial activity against Staphylococcus haemolyticus clinical isolates assessed as resistant isolates by broth microdilution method; format: functional
Streptococcus agalactiae [61] = assay: Antimicrobial activity against erythromycin-nonsusceptible Streptococcus agalactiae clinical isolates assessed as percent susceptible isolates by broth microdilution method; format: functional
Staphylococcus aureus [62] = assay: Antimicrobial activity against Staphylococcus aureus clinical isolates assessed as percent susceptible isolates by broth microdilution method; format: functional
Streptococcus pyogenes [63] = assay: Antimicrobial activity against erythromycin-susceptible Streptococcus pyogenes clinical isolates assessed as percent susceptible isolates by broth microdilution method; format: functional
Streptococcus pyogenes [64] = assay: Antimicrobial activity against Streptococcus pyogenes clinical isolates by broth microdilution method; format: functional
Streptococcus pyogenes [65] = assay: Antimicrobial activity against erythromycin-susceptible Streptococcus pyogenes clinical isolates by broth microdilution method; format: functional
Streptococcus pneumoniae [66] = assay: Antimicrobial activity against penicillin-susceptible Streptococcus pneumoniae clinical isolates assessed as resistant isolates by broth microdilution method; format: functional

CC[C@H]1OC(=O)[C@H](C)[C@@H](O[C@H]2C[C@@](C)(OC)[C@@H](O)[C@H](C)O2)[C@H](C)[C@@H](O[C@@H]2O[C@H](C)C[C@H](N(C)C)[C@H]2O)[C@](C)(O)C[C@@H](C)C(=O)[C@H](C)[C@@H](O)[C@]1(C)O [ERYTHROMYCIN]
Activity [1]: 88.3%
Percent resistant isolates (Staphylococcus aureus [2]): 65.3%
Activity [3]: 100%
Activity (Staphylococcus aureus [4]): 60.7%
MIC90 [5]: 0.06 µg/mL (≈ 0.0818 µM)
Activity [6]: 24.1%
MIC90 (Streptococcus pneumoniae [7]): > 2 µg/mL
MIC90 [8]: > 8 µg/mL
Activity [9]: 32.2%
Activity (Staphylococcus aureus [10]): 8.4%
Activity (Streptococcus pneumoniae [11]): 67.3%
Activity [12]: 0%
Activity (Streptococcus pneumoniae [13]): 14.9%
Percent of isolates resistant (Streptococcus pneumoniae [14]): 58.8%
Activity [15]: 100%
MIC90 [16]: > 8 µg/mL
Activity [17]: 21.6%
Activity (Streptococcus pneumoniae [18]): 41.2%
MIC90 (Staphylococcus aureus [19]): > 8 µg/mL
MIC90 (Streptococcus [20]): 2 µg/mL (≈ 2.73 µM)
Resistant isolates (Streptococcus pneumoniae [21]): 32.4%
Activity [22]: 11.7%
MIC90 (Staphylococcus aureus [23]): > 8 µg/mL
MIC90 [24]: 2 µg/mL (≈ 2.73 µM)
Percent resistant isolates (Staphylococcus aureus [25]): 90.5%
MIC [26]: ≥ 0.12 µg/mL
MIC90 [27]: > 8 µg/mL
Percent of isolates resistant [28]: 67.2%
MIC90 (Streptococcus agalactiae [29]): > 2 µg/mL
Activity (Streptococcus pyogenes [30]): 0%
Activity [31]: 48.6%
Activity (Streptococcus pyogenes [32]): 99.2%
Activity [33]: 53.8%
MIC90 [34]: > 2 µg/mL
MIC90 [35]: > 8 µg/mL
Percent of isolates resistant [36]: 45.4%
MIC (Streptococcus pneumoniae [37]): > 0.03 µg/mL
Percent of isolates resistant (Streptococcus pneumoniae [38]): 84.5%
Activity (Streptococcus pneumoniae [39]): 88.1%
MIC90 (Streptococcus pneumoniae [40]): > 2 µg/mL
Activity (Streptococcus pyogenes [41]): 86.3%
MIC90 (Streptococcus pneumoniae [42]): > 2 µg/mL
Percent of isolates resistant [43]: 75.3%
MIC90 (Streptococcus [44]): > 2 µg/mL
MIC90 (Streptococcus pyogenes [45]): > 2 µg/mL
Activity (Streptococcus agalactiae [46]): 100%
MIC90 (Streptococcus [47]): 0.06 µg/mL (≈ 0.0818 µM)
MIC90 (Streptococcus agalactiae [48]): > 2 µg/mL
Activity [49]: 0%
MIC90 [50]: 2 µg/mL (≈ 2.73 µM)
MIC90 (Streptococcus agalactiae [51]): 0.06 µg/mL (≈ 0.0818 µM)
Percent of isolates resistant (Staphylococcus aureus [52]): 35.9%
MIC90 [53]: 0.06 µg/mL (≈ 0.0818 µM)
MIC90 [54]: > 2 µg/mL
Activity [55]: 51.4%
Activity (Streptococcus pyogenes [56]): 13.6%
Activity (Streptococcus agalactiae [57]): 70.6%
Activity (Streptococcus agalactiae [58]): 97.5%
Activity (Streptococcus agalactiae [59]): 28.7%
Resistant isolates [60]: 78.4%
Activity (Streptococcus agalactiae [61]): 0%
Activity (Staphylococcus aureus [62]): 32.6%
Activity (Streptococcus pyogenes [63]): 100%
MIC90 (Streptococcus pyogenes [64]): > 2 µg/mL
MIC90 (Streptococcus pyogenes [65]): 0.06 µg/mL (≈ 0.0818 µM)
Percent of isolates resistant (Streptococcus pneumoniae [66]): 11.6%
